What was measured:
[1] = target: T1, RORγ-LBD (Homo sapiens, UniProt P51449); assay: RORγ-Ligand Binding Domain (LBD) TR-FRET Assay; format: biochemical; details: RORγ-LBD TR-FRET
T1 construct: made in house; host or cells: SF9 cells (baculovirus); used as diluted lysate
T1 sequence (P51449 269-508 limits assumed): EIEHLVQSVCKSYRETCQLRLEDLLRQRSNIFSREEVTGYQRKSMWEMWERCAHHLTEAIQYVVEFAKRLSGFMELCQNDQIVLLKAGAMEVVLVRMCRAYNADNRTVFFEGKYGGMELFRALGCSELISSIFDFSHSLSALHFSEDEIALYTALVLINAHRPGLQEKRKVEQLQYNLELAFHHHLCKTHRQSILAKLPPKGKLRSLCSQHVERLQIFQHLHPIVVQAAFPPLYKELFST
Procedure, shortened: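 This TR-FRET coactivator assay pairs baculovirus-expressed His-RORγ-LBD (~3 nM final) with biotin-SRC1 LXXLL peptide at 200 nM final in pH 7.0 Tris/KCl/EDTA/DTT/BSA buffer.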

[2] = target: T2, Gal4-RORγ-LBD (Homo sapiens, UniProt P51449); assay: Gal4-RORγ Luciferase Reporter Assay in HEK-293T Cells; format: cell-based; details: HEK-293 cells, luciferase reporter, with ursolic acid
T2 construct: expressed in transfected cells
T2 sequence (P51449 269-508 limits assumed): T1 sequence (P51449 269-508 limits assumed)
Procedure, shortened: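 HEK-293 cells were co-transfected with Gal4-RORγ-LBD and a Gal4-luciferase reporter, then exposed overnight at 37 °C to compounds with […] ursolic acid present (0.2% DMSO). Luminescence was read with One-Glo after 10 min at RT, untreated signal was set as 100, and Max Response was taken as the upper plateau of a 4-parameter logistic fit.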

Structure (SMILES) | EC50 [1] [nM] | EC50 [2] [nM]
CCOc1nn(CC)cc1S(=O)(=O)N1C[C@H](CCC(=O)O)Oc2ccc(/C=C/c3cccc(OC)n3)cc21 [Example 89S, (S,E)-3-(4-((3-ethoxy-1-ethyl-1H-pyrazol-4-yl)sulfonyl)-6-(2-(6-methoxypyridin-2-yl)vinyl)-3,4-dihydro-2H-benzo[b][1,4]-oxazin-2-yl)propanoic acid] | 500 to 5000 | > 10000
CCOc1nn(CC)cc1S(=O)(=O)N1C[C@H](CCC(=O)OC)Oc2ccc(/C=C/c3cccc(OC)n3)cc21 [Example 89T, (S,E)-methyl 3-(4-((3-ethoxy-1-ethyl-1H-pyrazol-4-yl)-sulfonyl)-6-(2-(6-methoxypyridin-2-yl)vinyl)-3,4-dihydro-2H-benzo[b][1,4]-oxazin-2-yl)propanoate] | > 10000 | > 10000
CCOc1nn(CC)cc1S(=O)(=O)N1C[C@H](CCC(=O)O)Oc2ccc(/C=C/c3ncccc3F)cc21 [Example 89W, (S,E)-3-(4-((3-ethoxy-1-ethyl-1H-pyrazol-4-yl)sulfonyl)-6-(2-(3-fluoropyridin-2-yl)vinyl)-3,4-dihydro-2H-benzo[b][1,4]-oxazin-2-yl)propanoic acid] | 5000 to 10000 | > 10000
CCOc1nn(CC)cc1S(=O)(=O)N1C[C@H](CCC(=O)OC)Oc2ccc(/C=C/c3ncccc3F)cc21 [Example 89X, (S,E)-methyl 3-(4-((3-ethoxy-1-ethyl-1H-pyrazol-4-yl)-sulfonyl)-6-(2-(3-fluoropyridin-2-yl)vinyl)-3,4-dihydro-2H-benzo[b][1,4]oxazin-2-yl)propanoate] | 500 to 5000 | > 10000
COC(=O)CC[C@H]1CN(S(=O)(=O)c2cccc(C(F)(F)F)c2)c2cc(C=C3CCCCC3)ccc2O1 [Example 90, Methyl (S)-3-(6-(cyclohexylidenemethyl)-4-((3-(trifluoromethyl)phenyl)sulfonyl)-3,4-dihydro-2H-benzo[b][1,4]oxazin-2-yl)propanoate] | < 500 | 500 to 5000
O=C(O)CC[C@H]1CN(S(=O)(=O)c2cccc(C(F)(F)F)c2)c2cc(C=C3CCCCC3)ccc2O1 [Example 91, (S)-3-(6-(Cyclohexylidenemethyl)-4-((3-(trifluoromethyl)phenyl)sulfonyl)-3,4-dihydro-2H-benzo[b][1,4]oxazin-2-yl)propanoic acid] | < 500 | 500 to 5000
O=C(O)CC[C@H]1CN(S(=O)(=O)c2cccc(C(F)(F)F)c2)c2cc(C=C3CCCC3)ccc2O1 [Example 92, (S)-3-(6-(Cyclopentylidenemethyl)-4-((3-(trifluoromethyl)phenyl)sulfonyl)-3,4-dihydro-2H-benzo[b][1,4]oxazin-2-yl)propanoic acid] | < 500 | 500 to 5000
O=C(O)CC[C@H]1CN(S(=O)(=O)c2cccc(C(F)(F)F)c2)c2cc(CC3CCCCC3)ccc2O1 [Example 93, (S)-3-(6-(Cyclohexylmethyl)-4-((3-(trifluoromethyl)phenyl)sulfonyl)-3,4-dihydro-2H-benzo[b][1,4]oxazin-2-yl)propanoic acid] | < 500 | 500 to 5000
O=C(O)CC[C@H]1CN(S(=O)(=O)c2cccc(C(F)(F)F)c2)c2cc(C=C3CCC(O)CC3)ccc2O1 (some centres unmarked) [Example 94] | < 500 | 500 to 5000
C[C@@H]1C/C(=C\c2ccc3c(c2)N(S(=O)(=O)c2cc(C(F)(F)F)cnc2OCCO)C[C@H](CCC(=O)O)O3)C[C@H](C)C1 [Example 95AA, 3-((S)-6-((E)-((3R,5S)-3,5-dimethylcyclohexylidene)-methyl)-4-((2-(2-hydroxy-ethoxy)-5-(trifluoromethyl)-pyridin-3-yl)sulfonyl)-3,4-dihydro-2H-benzo[b][1,4]oxazin-2-yl)propanoic acid] | < 500 | 500 to 5000
CC(C)=Cc1ccc2c(c1)N(S(=O)(=O)c1cccc(C(F)(F)F)c1)C[C@H](CCC(=O)O)O2 [Example 95AB, (S)-3-(6-(2-methylprop-1-en-1-yl)-4-((3-(trifluoromethyl)-phenyl)sulfonyl)-3,4-dihydro-2H-benzo[b][1,4]oxazin-2-yl)propanoic acid] | < 500 | 500 to 5000
COC(=O)CC[C@H]1CN(S(=O)(=O)c2cc(C(F)(F)F)cnc2OCCO)c2cc(C=C(C)C)ccc2O1 [Example 95AD, methyl (S)-3-(4-((2-(2-hydroxyethoxy)-5-(trifluoromethyl)pyridin-3-yl)sulfonyl)-6-(2-methylprop-1-en-1-yl)-3,4-dihydro-2H-benzo[b][1,4]oxazin-2-yl)propanoic acid] | < 500 | 500 to 5000
CCOc1ncc(C(F)(F)F)cc1S(=O)(=O)N1C[C@H](CCC(=O)O)Oc2ccc(C=C3CCCCC3)cc21 [Example 95B, (S)-3-(6-(cyclohexylidenemethyl)-4-((2-ethoxy-5-(trifluoromethyl)pyridin-3-yl)sulfonyl)-3,4-dihydro-2H-benzo[b][1,4]oxazin-2-yl)propanoic acid] | < 500 | 500 to 5000
O=C(O)CC[C@H]1CN(S(=O)(=O)c2cc(C(F)(F)F)cnc2OCCO)c2cc(C=C3CCCCC3)ccc2O1 [Example 95C, (S)-3-(6-(cyclohexylidenemethyl)-4-((2-(2-hydroxyethoxy)-5-(trifluoromethyl)pyridin-3-yl)sulfonyl)-3,4-dihydro-2H-benzo[b][1,4]oxazin-2-yl)propanoic acid] | < 500 | 500 to 5000
O=C(O)CC[C@H]1CN(S(=O)(=O)c2cc(C(F)(F)F)cnc2OCCO)c2cc(CC3CCCCC3)ccc2O1 [Example 95D, (S)-3-(6-(cyclohexylmethyl)-4-((2-(2-hydroxyethoxy)-5-(trifluoromethyl)pyridin-3-yl)sulfonyl)-3,4-dihydro-2H-benzo[b][1,4]oxazin-2-yl)propanoic acid] | < 500 | 500 to 5000
CCC(=Cc1ccc2c(c1)N(S(=O)(=O)c1cccc(C(F)(F)F)c1)C[C@H](CCC(=O)O)O2)CC [Example 95E, (S)-3-(6-(2-ethylbut-1-en-1-yl)-4-((3-(trifluoromethyl)phenyl)-sulfonyl)-3,4-dihydro-2H-benzo[b][1,4]oxazin-2-yl)propanoic acid] | < 500 | < 500
CCC(=Cc1ccc2c(c1)N(S(=O)(=O)c1cc(C(F)(F)F)cnc1OCCO)C[C@H](CCC(=O)O)O2)CC [Example 95F, (S)-3-(6-(2-ethylbut-1-en-1-yl)-4-((2-(2-hydroxyethoxy)-5-(trifluoromethyl)pyridin-3-yl)sulfonyl)-3,4-dihydro-2H-benzo[b][1,4]oxazin-2-yl)propanoic acid] | < 500 | 500 to 5000
CC1CCC/C(=C\c2ccc3c(c2)N(S(=O)(=O)c2cccc(C(F)(F)F)c2)C[C@H](CCC(=O)O)O3)C1 (stereo partly drawn) [Example 95G, 3-((2S)-6-((E)-(3-methylcyclo-hexylidene)methyl)-4-((3-(trifluoromethyl)phenyl)sulfonyl)-3,4-dihydro-2H-benzo[b][1,4]-oxazin-2-yl)propanoic acid] | < 500 | 500 to 5000
CC1(C)CCC(=Cc2ccc3c(c2)N(S(=O)(=O)c2cccc(C(F)(F)F)c2)C[C@H](CCC(=O)O)O3)CC1 [Example 95H, (S)-3-(6-((4,4-dimethylcyclo-hexylidene)methyl)-4-((3-(trifluoromethyl)phenyl)sulfonyl)-3,4-dihydro-2H-benzo[b][1,4]oxazin-2-yl)propanoic acid] | < 500 | 500 to 5000

Reference: patent publication US9896441B2 (Lycera Corporation, priority 2014, dated 2018)
